This is an account of results in PubChem BioAssay (NCI).

Several values for one entry are separate records, joined by “and”; a condition that tells them apart may be missing. Equal values may be shown once.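 Cultured in 96-well plates, cells were exposed to test compound for 48 hours across five concentrations. Abbreviation: GI50, concentration required for 50% inhibition of growth. TGI: total growth inhibition.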

Some test systems named below: RXF-631 renal; XF 498 CNS; DLD-1 colon; M19-MEL melanoma; MDA-N; DMS 273 small cell lung; HOP-18 NSCLC; SNB-78 CNS; LXFL 529 NSCLC.
Common to all, as to assay: NCI tumour cell line growth inhibition, 48 h

Take `Cn1c(=O)nc2n(-c3ccc(Cl)cc3)c3cc(Cl)ccc3nc-2c1=O`: the TGI in the test on RXF-631 renal stood at 4.22 µM; in the test with XF 498 CNS, 2.73 µM; in the test with DLD-1 colon, 3.9 µM; in the test on M19-MEL melanoma, 3.53 µM; with MDA-N it was 3.09 µM; in the test on DMS 273 small cell lung it was 12.5 µM. The TGI was 28.3 µM in the test on HOP-18 NSCLC, greater than 57.4 µM in the test on SNB-78 CNS and 3.13 µM with LXFL 529 NSCLC.
With `CC(C)(C)C(=O)Nc1cccc2oc(-c3ccccc3)cc12`, the TGI with RXF-631 renal, in the test with DLD-1 colon, with M19-MEL melanoma, with DMS 273 small cell lung, in the test on HOP-18 NSCLC and in the test with SNB-78 CNS was greater than 100 µM each time. For the same compound, the TGI in the test on LXFL 529 NSCLC was greater than 100 µM.
In the case of `Cn1c2c(c3ccccc31)CCN(CCCCN1CCN(c3ccccc3)CC1)C2=O`, the TGI in the test with RXF-631 renal is greater than 100 µM; in the test with XF 498 CNS it was greater than 70.1 µM; in the test on DLD-1 colon, greater than 100 µM; in the test with M19-MEL melanoma, greater than 86.7 µM; with MDA-N, 89.9 µM; with DMS 273 small cell lung, greater than 100 µM. For the same compound, the TGI in the test with HOP-18 NSCLC was greater than 31.6 µM; in the test on SNB-78 CNS, greater than 100 µM; in the test on LXFL 529 NSCLC, greater than 100 µM.
As to `O=C(OCCCl)C1OC(n2cc(F)c(=O)[nH]c2=O)CC1O` (centres undefined), the TGI with XF 498 CNS, in the test on DLD-1 colon, in the test on M19-MEL melanoma, in the test on HOP-18 NSCLC, with SNB-78 CNS and in the test on LXFL 529 NSCLC was greater than 100 µM each time.
For `CC(C)(C)c1cc(CCCCCCCC2(CCCCCCCc3cc(C(C)(C)C)cc(C(C)(C)C)c3)OC(COCCOCCCCCC#N)C(COCCOCCCCCC#N)O2)cc(C(C)(C)C)c1` (centres undefined), the TGI with DLD-1 colon, in the test on M19-MEL melanoma, with DMS 273 small cell lung, in the test on HOP-18 NSCLC, with SNB-78 CNS and in the test with LXFL 529 NSCLC was greater than 100 µM each time.
For the compound `Cc1ccc(/C=C(\NC(=O)c2ccccc2)c2nc3ccccc3[nH]2)cc1`, the TGI in the test with DLD-1 colon, with M19-MEL melanoma, in the test on HOP-18 NSCLC and in the test on LXFL 529 NSCLC was greater than 100 µM throughout.
Turning to `Cc1ccc(NC(=O)CC/C(CC(=O)C(C)(C)C)=N\NC(=O)C[n+]2ccccc2)cc1C`, the TGI in the test on XF 498 CNS, with M19-MEL melanoma, with DMS 273 small cell lung, in the test on HOP-18 NSCLC, with SNB-78 CNS and in the test with LXFL 529 NSCLC was greater than 100 µM in each case.
`CC1=C(C)C(=O)O[C@@H]([C@](C)(O)[C@]2(O)CC[C@@]3(O)[C@@H]4C[C@H](O)[C@]5(O)[C@@H](O)C=CC(=O)[C@]5(C)[C@H]4CC[C@]23C)C1` returned a TGI with MDA-N greater than 100 µM.
As to `O=C(Cc1nc2ccccc2o1)C(=O)Nc1cccc(Cl)c1`, the TGI in the test on XF 498 CNS, with DLD-1 colon, in the test on M19-MEL melanoma, in the test on HOP-18 NSCLC, in the test on SNB-78 CNS and with LXFL 529 NSCLC was greater than 100 µM in each case.
In the test on MDA-N, `CCCCCCn1c(SC)nc(COC(=O)NC)c1COC(=O)NC` yielded a TGI of 36.1 µM.
`NC1CCCCC1N.O=C1C=C/C(=C(/c2ccc(O)c(Br)c2)c2ccccc2S(=O)(=O)[O-])C=C1Br.O=C1C=C/C(=C(/c2ccc(O)c(Br)c2)c2ccccc2S(=O)(=O)[O-])C=C1Br.[Pt+4]`: the GI50 in the test on XF 498 CNS was 0.112 µM; with DLD-1 colon it was 5.27 µM; in the test on M19-MEL melanoma, 0.539 µM; in the test with DMS 273 small cell lung, 0.813 µM; with HOP-18 NSCLC, 7.95 µM; in the test on SNB-78 CNS, 48.2 µM. Further, the GI50 in the test with LXFL 529 NSCLC was 4.43 µM. Further, the TGI is 0.927 µM in the test with XF 498 CNS; greater than 100 µM in the test on DLD-1 colon; 32.2 µM in the test on M19-MEL melanoma; 29.2 µM in the test on DMS 273 small cell lung; greater than 100 µM in the test on HOP-18 NSCLC; greater than 100 µM in the test with SNB-78 CNS. Further, the TGI in the test with LXFL 529 NSCLC is greater than 100 µM.
For the compound `O=C(NCCCl)Nc1cccnc1`, the TGI with MDA-N worked out at 67.9 µM.
Consider `O=C(N/C(=C\c1cccc([N+](=O)[O-])c1)c1nc2ccccc2[nH]1)c1ccccc1`, for which the TGI was 87.5 µM with XF 498 CNS; greater than 100 µM with DLD-1 colon; greater than 100 µM with M19-MEL melanoma; greater than 100 µM with DMS 273 small cell lung; greater than 100 µM in the test with SNB-78 CNS; greater than 100 µM in the test with LXFL 529 NSCLC.
Regarding `NS(=O)(=O)c1ccc(NC(=O)Cc2nc3ccccc3s2)cc1`, the TGI worked out at 30.3 µM with RXF-631 renal; 29.8 µM in the test on XF 498 CNS; 29.5 µM in the test with DLD-1 colon; 28.1 µM in the test with M19-MEL melanoma; 33.1 µM in the test on DMS 273 small cell lung; 34.8 µM in the test on HOP-18 NSCLC. Besides, the values for the TGI in the test on SNB-78 CNS and with LXFL 529 NSCLC were 41.6 µM and 30.7 µM, respectively.
Regarding `CC1=NN(C(=O)Nc2ccc(Cl)cc2)C(=O)C2CCC(=O)N12` (centres undefined), the TGI with XF 498 CNS, with DLD-1 colon, in the test with M19-MEL melanoma, with DMS 273 small cell lung, with SNB-78 CNS and in the test with LXFL 529 NSCLC was greater than 100 µM each time.
For the compound `c1ccncc1`, the TGI with DLD-1 colon, in the test on DMS 273 small cell lung and with LXFL 529 NSCLC was greater than 100 µM each time.
As to `CCN(CC)CC(C)C(=O)/C=C/c1ccc(C)cc1` (centres undefined), the TGI with XF 498 CNS was 2.98 µM; in the test on DLD-1 colon, 3.16 µM; with M19-MEL melanoma, 3.04 µM; with DMS 273 small cell lung, 5.96 µM; with HOP-18 NSCLC, 22.3 µM; in the test with SNB-78 CNS, 23.1 µM. For the same compound, the TGI in the test with LXFL 529 NSCLC was 3.23 µM.
In the test on MDA-N, `COc1ccc2c3c1OC1C(OC)(OC)C=C[C@@]4(Br)[C@@H](C2)N(CC2CC2)CC[C@]314` (some centres undefined) returned a TGI greater than 100 µM.
Same read-out and setting: in the case of `O=C(O)c1ccc(C(O)(c2ccccc2)c2ccccc2)cc1` it was greater than 100 µM.
As for `COCCOC1=CC(=O)c2c(O)ccc(O)c2C1=O`, in the test with MDA-N, the GI50 was 0.359 µM; the TGI was 0.341 µM and 1.13 µM.
